Reference: patent US6060516A, “N^1 -propargylhydrazines, N^2 -propargylhydrazines and their analogs for the treatment of depression, anxiety and neurodegeneration” (CV Technologies, Inc., priority 1998, dated 2000)

How the values were obtained:
[1] = test system: PC12 cells; test: PC12 neurite outgrowth (neurotrophic effect); assay type: cell-based; conditions: for Index of Neurite Outgrowth: seven days
Method: The effects of CVT-P040 on neurite outgrowth in cell culture were investigated using an established PC 12 pheochromocytoma cell culture. The effects of CVT-P040 and nerve growth factor on neurite outgrowth were estimated using the method described by Rydel, R. E and Greene, L. A.(1987), Acidic and basic fibroblast growth factors promote stable neurite outgrowth and basic neuronal differentiation in cultures of PC12 cells, J. Neuroscience 7: 3639-3653. Briefly, PC12 cells were seeded and maintained in 100 cm^2 tissue culture dishes at 37° C. in RPMI1640 media containing 1% antibiotics, 10% heat inactivated horse serum and 5% fetal bovine serum in a water saturated atmosphere of 95% air and 5% CO2. The cells were mechanically dislodged and plated into 35 mm collagen-coated tissue culture dishes containing a total of 2.0 ml complete medium at a density of […]. The medium was changed 3 times/week. Cellular responses to CVT-P040 and nerve growth factor (NGF) were determined by counting the number of PC12 cells containing processes. Photographs of the cells were taken after seven days treatment. Two cell fields were chosen in each dish and the photographs developed and printed. […] The neurite index was calculated using the following formula; Neurite Index=total neurite score (ΣS)/ total cell number (ΣN); ΣS=S1×N+S2×N +S3×N+S4×N, where N is the number of cells in each cell field.

[2] = test system: DSP-4 induced noradrenaline depletion in mouse hippocampus; test: Prevention of DSP-4 induced noradrenaline depletion in mouse hippocampus; assay type: in vivo; conditions: for protection against DSP-4 induced noradrenaline depletion / neuroprotective effect: 10 mg/kg, mouse hippocampus, in words
Method: Neuroprotectant activity was evaluated by examining the prevention of DSP-4 induced noradrenaline depletion in mouse hippocampus as described in Yu, P. H., Davis, B. A., Fang, J. and Boulton, A. A. (1994), Neuroprotective effect of some monoamine oxidase-B inhibitors against DSP-4 induced noradrenaline depletion in the mouse hippocampus, J. Neurochem. 63: 1820-1828. Briefly, mice were injected (i.p.) with either 20% DMSO or potential neuroprotectants (10 mg/kg in 20% DMSO). One hour later they were injected with either water or DSP-4 (50 mg/kg in water). One week later the mice were killed and the brains removed and the hippocampus dissected out. The hippocampus was frozen and saved for estimation of noradrenaline and other aminergic neurotransmitters and their metabolites as in Sloley, B. D. and Goldberg J. I. (1991), Determination of γ-glutamyl conjugates of monoamines by means of high-performance liquid chromatography with electrochemical detection and application to gastropod tissues, J. Chromatog. 567: 49-56. The rest of the brain was frozen and retained for estimation of monoamine oxidase activities ex vivo as described earlier.

[3] = test system: DSP-4 induced noradrenaline depletion in mouse hippocampus; test: as above; assay type: in vivo; conditions: 10 mg/kg then DSP-4 50 mg/kg; saline control experiment
[4] = 10 mg/kg i.p. then DSP-4 50 mg/kg, 20% DMSO control experiment

Structure (SMILES)	neurite index on coadministration with NGF ([1]; CVT-P040 100 μM with 0.3 or 1.0 ng/ml NGF, against NGF alone, in words)	Index of Neurite Outgrowth ([1]; CVT-P040 100 μM with NGF 0.1 ng/ml)	Index of Neurite Outgrowth ([1]; CVT-P040 100 μM with NGF 0.3 ng/ml)	Index of Neurite Outgrowth ([1]; CVT-P040 100 μM with NGF 1.0 ng/ml)	neurite outgrowth in PC12 cells ([1]; CVT-P040 100 μM, in words)	Index of Neurite Outgrowth ([1]; CVT-P040 100 μM)	% NA Restoration [2, 4] [%]	NA [2, 4] [ng/g]	protection against DSP-4 induced noradrenaline depletion / neuroprotective effect [2]	% NA Restoration [3] [%]	NA [3] [ng/g]
C#CCN(N)CCc1ccccc1 [CVT-P040, N^1 -propargylphenelzine]	increased the neurite index above those cultures receiving 0.3 or 1.0 ng/ml NGF alone	0.55 ± 0.03	0.97 ± 0.06	1.53 ± 0.07	increased neurite outgrowth in PC12 cells	0.35 ± 0.03	55.4	235 ± 26	significantly protected against DSP-4 induced noradrenaline depletion		
C#CCN(CCc1ccccc1)NC(C)=O [CVT-P041, N^1 -propargyl-N^2 -acetylphenelzine]									did not exhibit a neuroprotective effect	-43.2	168 ± 31
